From patent US20110045101A1, “FUNGICIDAL SUBSTITUTED AZOLES” (E.I. Du Pont De Nemours and Company, priority 2009, published 2011)
Marks after values point to notes of the source that are not given here.

Tests used:
Type in all cases: in vivo
Details in all cases: 100 = 100% disease control
Botrytis cinerea = assay: Test C: tomato Botrytis on tomato seedlings, sprayed the day before inoculation, visual disease rating
Excerpt: General protocol for preparing test suspensions for Tests A-J: The test compounds were first dissolved in acetone in an amount equal to 3% of the final volume and then suspended at the desired concentration (in ppm) in acetone and purified water (50/50 mix) containing 250 ppm of the surfactant Trem® 014 (polyhydric alcohol esters). The resulting test suspensions were then used in tests A-J. Spraying a 200 ppm test suspension to the point of run-off on the test plants was the equivalent of a rate of 500 g/ha. […] The test suspension was sprayed to the point of run-off on tomato seedlings. […] A dash (-) indicates no test results. All results are for 200 ppm except where followed by “*”, which indicates 40 ppm.

Alternaria solani = assay: Test D: tomato early blight, sprayed the day before inoculation, visual disease rating
Excerpt: (§1) General protocol for preparing test suspensions for Tests A-J: The test compounds were first dissolved in acetone in an amount equal to 3% of the final volume and then suspended at the desired concentration (in ppm) in acetone and purified water (50/50 mix) containing 250 ppm of the surfactant Trem® 014 (polyhydric alcohol esters). The resulting test suspensions were then used in tests A-J. Spraying a 200 ppm test suspension to the point of run-off on the test plants was the equivalent of a rate of 500 g/ha. […] The test suspension was sprayed to the point of run-off on wheat seedlings. […] A dash (-) indicates no test results. All results are for 200 ppm except where followed by “*”, which indicates 40 ppm.

Septoria nodorum = assay: Test F: wheat glume blotch on wheat seedlings, sprayed the day before inoculation, visual disease rating
Excerpt: as §1

Septoria tritici = assay: Test G: wheat leaf blotch on wheat seedlings, sprayed the day before inoculation, visual disease rating
Excerpt: General protocol for preparing test suspensions for Tests A-J: The test compounds were first dissolved in acetone in an amount equal to 3% of the final volume and then suspended at the desired concentration (in ppm) in acetone and purified water (50/50 mix) containing 250 ppm of the surfactant Trem® 014 (polyhydric alcohol esters). The resulting test suspensions were then used in tests A-J. Spraying a 200 ppm test suspension to the point of run-off on the test plants was the equivalent of a rate of 500 g/ha. […] The test suspension was sprayed to the point of run-off on wheat seedlings. The following day the seedlings were inoculated with a spore suspension of Septoria tritici (the causal agent of wheat leaf blotch) and incubated in saturated atmosphere at 24° C. for 48 h, and then moved to a growth chamber at 20° C. for 19 days, after which time visual disease ratings were made. […] A dash (-) indicates no test results. All results are for 200 ppm except where followed by “*”, which indicates 40 ppm.

[1] = tested on: Puccinia recondita f. sp. tritici; assay: Test I: wheat leaf rust on wheat seedlings, sprayed the day before inoculation, visual disease rating
Excerpt: as §1

[2] = tested on: Erysiphe graminis f. sp. tritici; assay: Test J: wheat powdery mildew on wheat seedlings, sprayed the day before inoculation, visual disease rating
Excerpt: as §1

[3] = 40 ppm (marked *), 0 = no control
[4] = 200 ppm, 0 = no control relative to controls

| Compound | Test C disease control rating (Botrytis cinerea; [4]) | Test D disease control rating (Alternaria solani; [4]) | Test F disease control rating (Septoria nodorum; [4]) | Test G disease control rating (Septoria tritici; [4]) | Test I disease control rating [1, 4] | Test J disease control rating [2, 4] | Test C disease control rating (Botrytis cinerea; 200 ppm, 0 = no control) | Test D disease control rating (Alternaria solani; 200 ppm, 0 = no control) | Test F disease control rating (Septoria nodorum; 200 ppm, 0 = no control) | Test G disease control rating (Septoria tritici; 200 ppm, 0 = no control) | Test I disease control rating ([1]; 200 ppm, 0 = no control) | Test J disease control rating ([2]; 200 ppm, 0 = no control) | other results |
| --- | --- | --- | --- | --- | --- | --- | --- | --- | --- | --- | --- | --- | --- |
| Fc1cc(F)c(-n2c(Cl)nc(Cl)c2-c2ccc(Cl)cc2)c(F)c1 [compound 204] | – | – | – | – | – | – | – | – | – | – | – | – | Test C disease control rating (Botrytis cinerea; [3]): 90* %; Test D disease control rating (Alternaria solani; [3]): 91* %; Test F disease control rating (Septoria nodorum; [3]): 0* %; Test G disease control rating (Septoria tritici; [3]): 90* %; Test I disease control rating [1, 3]: 18* %; Test J disease control rating [2, 3]: 26* % |
| Cc1nc(Cl)c(-c2c(F)ccc(F)c2F)n1-c1ccc(F)cc1 [compound 145] | 99% | 100% | 100% | 100% | 100% | 100% | – | – | – | – | – | – | – |
| Cc1nc(Cl)c(-c2c(F)cccc2F)n1-c1cccc(Cl)c1 [compound 236] | – | – | – | – | – | – | 100% | 100% | 99% | 96% | 100% | 100% | – |
| COc1ccc(-c2c(Cl)ncn2-c2ccc(Cl)cc2)c(F)c1 [compound 106] | 100% | 99% | 64% | 93% | 99% | 95% | – | – | – | – | – | – | – |
| COc1nc(Cl)c(-c2c(Cl)nc(Cl)n2-c2ccc(Cl)c(F)c2)s1 [compound 456] | 0% | 0% | 0% | 88% | 0% | 43% | – | – | – | – | – | – | – |
| COc1ccc(F)c(-c2c(Cl)nc(Cl)n2-c2ccc(I)cc2)c1F [compound 444] | 99% | 100% | 100% | 98% | 95% | 99% | – | – | – | – | – | – | – |
| Cc1cc(-c2cnc(Cl)n2-c2ccc(Cl)cc2)sc1CCl [compound 452] | 55% | 0% | 0% | 86% | 86% | 76% | – | – | – | – | – | – | – |
| COc1cc(F)c(-c2c(Br)nc(OC)n2-c2ccc(Cl)cc2)c(F)c1 [compound 96] | – | – | – | – | – | – | – | – | – | – | – | – | Test C disease control rating (Botrytis cinerea; 40 ppm (marked *)): 98* %; Test D disease control rating (Alternaria solani; 40 ppm (marked *)): 100* %; Test F disease control rating (Septoria nodorum; 40 ppm (marked *)): 97* %; Test G disease control rating (Septoria tritici; 40 ppm (marked *)): 97* %; Test I disease control rating ([1]; 40 ppm (marked *)): 97* %; Test J disease control rating ([2]; 40 ppm (marked *)): 99* % |
| COc1cc(F)c(-c2c(Cl)ncn2-c2ccc(F)cc2)c(F)c1 [compound 136] | 99% | 100% | 99% | 96% | 100% | 100% | – | – | – | – | – | – | – |
| Cn1nc(Br)c(-c2c(F)cc(F)cc2F)c1-c1ccc(Cl)cc1 [compound 166] | – | – | – | – | – | – | 96% | 97% | 40% | 96% | 91% | 100% | – |
| Fc1cccc(F)c1-n1cnc(Cl)c1-c1ccc(Cl)cc1 [compound 163] | – | – | – | – | – | – | – | – | – | – | – | – | Test C disease control rating (Botrytis cinerea; [3]): 0* %; Test D disease control rating (Alternaria solani; [3]): 0* %; Test F disease control rating (Septoria nodorum; [3]): 0* %; Test G disease control rating (Septoria tritici; [3]): 10* %; Test I disease control rating [1, 3]: 0* %; Test J disease control rating [2, 3]: 0* % |
| Fc1ccc(F)c(-c2c(Cl)nc(Br)n2-c2ccc(Cl)cc2)c1Cl [compound 76] | 37% | 99% | 60% | 97% | 99% | 100% | – | – | – | – | – | – | – |
| COc1cc(F)c(-c2c(Cl)nc(I)n2-c2ccc(Cl)c(F)c2)c(F)c1 [compound 241] | – | – | – | – | – | – | 100% | 100% | 100% | 96% | 96% | 93% | – |
| Cc1ccc(-n2c(C)nc(Cl)c2-c2c(F)cc(F)cc2F)cc1 [compound 168] | – | – | – | – | – | – | 97% | 99% | 84% | 98% | 100% | 100% | – |
| Cc1ccc(-n2c(C)nc(Cl)c2-c2c(F)ccc(F)c2F)cc1C [compound 238] | – | – | – | – | – | – | 99% | 99% | 0% | 93% | 96% | 100% | – |
| Cc1ccc(-n2cnc(Cl)c2-c2c(F)cc(F)cc2F)cc1 [compound 139] | 99% | 100% | 0% | 75% | 98% | 98% | – | – | – | – | – | – | – |
| Cc1ccc(-n2c(Br)nc(Cl)c2-c2ccc(F)cc2Cl)cc1 [compound 184] | – | – | – | – | – | – | 99% | 100% | 0% | 97% | 100% | 100% | – |
| COc1ccc(F)c(-c2c(Cl)nc(C)n2-c2ccc(Cl)cc2)c1F [compound 122] | 98% | 100% | 100% | 96% | 100% | 100% | – | – | – | – | – | – | – |
| COc1cc(Cl)cc(F)c1-c1c(Cl)nc(Br)n1-c1ccc(Cl)cc1 [compound 140] | 0% | 0% | 0% | 93% | 55% | 39% | – | – | – | – | – | – | – |
| C=Cc1nc(C)n(-c2ccc(Cl)cc2)c1-c1c(F)cccc1F [compound 217] | – | – | – | – | – | – | – | – | – | – | – | – | Test C disease control rating (Botrytis cinerea; [3]): 33* %; Test D disease control rating (Alternaria solani; [3]): 57* %; Test F disease control rating (Septoria nodorum; [3]): 0* %; Test G disease control rating (Septoria tritici; [3]): 13* %; Test I disease control rating [1, 3]: 0* %; Test J disease control rating [2, 3]: 0* % |
| Fc1cc(-n2c(Cl)nc(Cl)c2-c2c(F)cccc2Cl)ccc1Cl [compound 230] | – | – | – | – | – | – | 99% | 97% | 0% | 99% | 94% | 99% | – |
| Cc1ccc(-n2c(C)nc(Cl)c2-c2c(F)ccc(F)c2F)cc1 [compound 155] | – | – | – | – | – | – | 99% | 100% | 87% | 95% | 99% | 100% | – |
| N#Cc1cc(F)c(-c2c(Cl)nc(Br)n2-c2ccc(Cl)cc2)c(F)c1 [compound 201] | – | – | – | – | – | – | 99% | 100% | 100% | 98% | 96% | 100% | – |
| COc1cc(F)c(-c2c(C)ncn2-c2ccc(Cl)cc2)c(F)c1 [compound 56] | – | – | – | – | – | 99% | – | – | – | – | – | – | Test C disease control rating (Botrytis cinerea; 40 ppm (marked *)): 96* %; Test D disease control rating (Alternaria solani; 40 ppm (marked *)): 100* %; Test F disease control rating (Septoria nodorum; 40 ppm (marked *)): 60* %; Test G disease control rating (Septoria tritici; 40 ppm (marked *)): 96* %; Test I disease control rating ([1]; 40 ppm (marked *)): 94* % |
| Cc1nc(Cl)c(-c2c(F)ccc(F)c2F)n1-c1ccc(Cl)cc1 [compound 48] | 99% | 100% | 100% | 94% | 100% | 100% | – | – | – | – | – | – | – |
| Cc1nc(Cl)c(-c2c(F)ccc(F)c2Cl)n1-c1ccc(Cl)c(F)c1 [compound 237] | – | – | – | – | – | – | 100% | 100% | 100% | 98% | 100% | 100% | – |
